Results from US20050063956A1, “Method and device for attracting insects” (Colorado State University Research Foundation, priority 1998, published 2005).
Several values for one entry are separate records, joined by “and”; a condition that tells them apart may be missing. Equal values may be shown once. Entries after “also recorded” stand apart in the source; their conditions may differ.

Tested on: western corn root worm larvae
Test: Glass bead Y-tube choice-test bioassay (Example 18)
Type: in vivo, Diabrotica virgifera virgifera LeConte
Conditions: for CO2 selective response, choice between two concentrations: base 1, 2, 5, 10, 20 mmol/mol
Procedure: Bioassay Apparatus. The choice-test bioassay apparatus (FIG. 34) was constructed from a glass Y-tube filled with glass beads to simulate the thigmotactic cues of the soil environment that are ordinarily encountered by western corn root worm larvae. The glass Y-tube was fabricated by a local glassblower (9.5 mm inside diameter, 60° angles, with each branch 3 cm long), and clamped to a ring stand with 2 branches of the “Y” facing down. A glass connection tube (4 cm long, 0.5 cm diameter) with a piece of vinyl screen (2.5-mm mesh) held over 1 end by a 0.5-cm section of Teflon tubing (6 mm inside diameter) was inserted snugly into the end of each of the arms of the Y-tube to support the glass beads. Glass beads (3 mm, cat. no. 11-312A, Fisher Scientific, Pittsburgh, Pa.) were poured into the top of the Y-tube, filling the entire apparatus to within 0.5 cm of the top (250 beads). A 5-mm NMR tube cap (cat. no. 100-0050, Drummond Scientific, Broomall, Pa.) was fitted into the other end of each glass connection tube, with a hole to allow snug insertion of a 20-cm piece of slender Teflon tubing (0.8 mm inside diameter) for introduction of volatile chemical cues into each arm of the bioassay apparatus. Two techniques were used to introduce candidate chemical cues into the 2 arms of the apparatus: 1 used shell vials as chemical sources, and the other used syringes as chemical sources.
Shell Vial Sources. In this 1st approach (FIG. 34), two 35-ml polyethylene syringes (cat. no. 106-0490, Sherwood Medical, St. Louis, Mo.) were filled with ambient air, and the air was pumped through shell vials containing candidate chemical cues. Glass shell vials (4 ml) with polyethylene caps were used (cat. no. B7785-1, Baxter Healthcare, McGaw Park, Ill.). A 35-ml syringe was snugly connected with slender Teflon tubing (20 cm) to a hole in the cap of the shell vial. A 2nd piece of slender Teflon tubing was used to connect the shell vial to 1 arm of the bioassay apparatus. The 2 syringes used for each bioassay were connected to a syringe pump (Sage Model 355, Fisher Scientific, Pittsburgh, Pa.) that provided an airflow through each shell vial containing a candidate chemical treatment, and subsequently into a choice arm of the bioassay apparatus. For the shell vial sources of candidate chemical compounds, the shell vial containing either a carbonated water dilution or a corn seed or cut corn roots was left open for 5 min to allow the gas concentrations to reach equilibrium. The vial was capped, and the syringe pump was started, providing an airflow of 1.0 ml/min from each syringe.
Syringe Sources. In this 2nd approach (FIG. 39), 35-ml polyethylene syringes were filled directly with candidate chemical cues (such as the headspace from a container of germinating corn, a sample of CO2 mixed with air, or the headspace from a bottle of carbonated water). Each of the 2 syringes was connected with slender Teflon tubing to 1 arm of the bioassay apparatus. The 2 syringes used for each bioassay were connected to a syringe pump that was adjusted to provide an airflow of 1 ml/min from each syringe.
Bioassay Procedure. For bioassays, 20 newly hatched 1st instars (0-12 hours old) were collected from tubs containing eggs in soil (by using a camel's hair brush) and placed in a covered 5-mm NMR cap with 2 holes (1 mm diameter) drilled in the bottom (FIGS. 34 and 39). These holes were temporarily plugged with a piece of wire bent into a U-shape. The open end of the NMR cap was sealed with a small square of cellophane held in place with a plastic tube (a piece of soda straw) that fit snugly over the open end. The Y-tube apparatus was assembled and filled with glass beads and the appropriate treatment and control sources (shell vials or syringes) were connected to the arms of the Y-tube. The syringe pump was set to provide a flow of 1 ml/min and turned on. […]

- time to recover normal movement (after removal from apparatus, 300 or 900 mmol/mol CO2): 5 to 10 min
SMILES: O=C=O [CO2, carbon dioxide]
- CO2 selective response, equal amounts of CO2 on both sides (1, 2, 5, 10, or 20 mmol/mol both sides): no significant differences in attraction were observed
- larval attraction at high CO2 (300 or 900 mmol/mol CO2): not attracted
- toxic symptoms of larvae at high CO2 (300 or 900 mmol/mol CO2): exhibited toxic symptoms; also recorded: lethargic when removed from the apparatus
- smallest difference between the 2 choices still attractive (base 1 mmol/mol): 0.125 mmol/mol
- CO2 selective response, choice between two concentrations (difference 0.125 mmol/mol): significantly greater attraction was observed to 1.125 mmol/mol than to 1 mmol/mol; also recorded: no difference in attraction was observed in any of the tests at higher concentrations
- CO2 selective response, choice between two concentrations (difference 0.25 mmol/mol): more attracted to the higher CO2 concentration for 1 versus 1.25 mmol/mol (FIG. 48), and for 2 versus 2.25 mmol/mol; also recorded: no difference in attraction was observed for 5 versus 5.25 mmol/mol (FIG. 50), for 10 versus 10.25 (FIG. 51) mmol/mol, or for 20 versus 20.25 mmol/mol
- CO2 selective response, choice between two concentrations (difference 0.50 mmol/mol): no difference in attraction was observed for 20 versus 20.50 mmol/mol
- excess of CO2 concentration over control at which larvae were first attracted (selective response experiments): 12.5%
- highest concentration of CO2 to which the larvae were attracted (versus ambient air control): 100 mmol/mol and 85.60±1.20 mmol/mol
- lowest concentration of CO2 attractive to the larvae (versus ambient air control (0.91-0.99 mmol/mol)): 1.125±0.04 mmol/mol
